Values quoted from earlier work in US20070116643A1, “Novel aryloxypropanamines” (Concert Pharmaceuticals Inc., priority 2005, published 2007).
Structures can show the parent of a compound that is named as a salt.

Assays:
5-HT reuptake [1] = conditions: rodent models
NE reuptake = conditions: in humans
5-HT reuptake [2] = conditions: in humans
[3] = system: central monoamine receptors

Structure (SMILES): CNCC[C@H](Oc1cccc2ccccc12)c1cccs1 [Compound A, (S)-N-methyl-3-(naphthalen-1-yloxy)-3-(thiophen-2-yl)propan-1-amine hydrochloride]
- circulating radioactivity attributable to parent drug, AUC basis (humans, radiolabeled Compound A): approximately 3%
- extent of metabolism (oral administration to humans, predominantly oxidative mechanisms): rapidly and extensively metabolized
- inhibition of neural cell firing / 5-HT reuptake (5-HT reuptake [1]): inhibiting neural cell firing by reducing reuptake of 5-HT
- inhibition of NE reuptake (NE reuptake): recapitulates the preclinically observed inhibition of 5-HT and NE reuptake
- inhibition of 5-HT reuptake (5-HT reuptake [2]): recapitulates the preclinically observed inhibition of 5-HT and NE reuptake
- affinity for central monoamine receptors [3]: lacks affinity for central monoamine receptors
